This passage reports EC50 results from patent US10344019B2 (priority 2010, dated 2019).

pEC50: −log10 of the molar value. Like-named read-outs stand apart in the source and are kept apart here. Where only a bound is given, the exact number is not on record here.

What all share (type): cell-based
Test [1] has as its system HCV 2a JFH-1 Rluc cells (dicistronic genotype 2a JFH-1 replicon, RLuc reporter). Put plainly: microbe, parasite or virus in culture. Conditions: read-out: 2a JFH. Summed up:
(§1)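 Renilla luciferase HCV replicon cells: dicistronic 1b Con1, 1a H77 or 2a JFH-1 replicons, or a JFH-1 chimera carrying J6 NS5A (M31 present). Compound in DMSO serial dilutions, 72 h incubation, then lysis and luciferase read. EC50 by non-linear regression.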

Test [2] has as its system HCV 1a RLuc cells (dicistronic genotype 1a H77 replicon, RLuc reporter). Put plainly: microbe, parasite or virus in culture. Conditions: read-out: 1a. In outline:
as §1

For test [3], the system named is HCV 2b Rluc cells (NS5A chimeric genotype 2a JFH-1 replicon with genotype 2b MD2b-1 NS5A gene, M31 present). Put plainly: microbe, parasite or virus in culture. The settings on record: Hepatitis C virus, read-out: 2b. In outline:
(§2)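 Replicon cells stably carrying the listed RLuc-encoding dicistronic replicons were seeded and treated with DMSO serial dilutions of compound (10 mM stocks) diluted into culture medium. After 72 h, cells were lysed and Renilla luciferase activity measured. EC50 was derived by non-linear regression.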

For test [4], the system named is HCV 4a Rluc cells (NS5A chimeric genotype 1b Con1 replicon with genotype 4a NS5A gene). Kind of test: microbe, parasite or virus in culture. Conditions: Hepatitis C virus, read-out: 4a. In outline: as §2
Test [5] deals with HCV 3a RLuc cells (NS5A chimeric genotype 1b Con1 replicon with consensus genotype 3a NS5A gene). Kind of test: microbe, parasite or virus in culture. In outline:
as §2

Test [6] relates to HCV 1b RLuc cells (dicistronic genotype 1b Con1 replicon, RLuc reporter). Kind of test: microbe, parasite or virus in culture. Conditions: for EC50: Hepatitis C virus, read-out: 1b (nM). Summed up: as §1
Test [7] has as its system HCV 2a Rluc cells (NS5A chimeric genotype 2a JFH-1 replicon with genotype 2a J6 strain NS5A gene, M31 present). Kind of test: HCV replicon reporter assay, genotype 2a J6 (M31 present). Conditions: Hepatitis C virus, read-out: 2a J6. Summed up:
as §1
Background: A replicon is a self-replicating genome or part of one, used to study replication in cells.

The mark [8] stands for this setting: Hepatitis C virus, genotype 2a JFH-1 replicon.
[9] abbreviates: Hepatitis C virus, genotype 1a replicon.
Setting [10] is: Hepatitis C virus, read-out: 3a, genotype 3a replicon.
The mark [11] stands for this setting: Hepatitis C virus, genotype 2a JFH-1 RLuc replicon.
Where [12] appears, read: Hepatitis C virus, genotype 1a H77 RLuc replicon.
[13] abbreviates: Hepatitis C virus, read-out: 3a, genotype 3a NS5A chimeric replicon.

As to `COC[C@H]1C[C@@H](c2nc3ccc4cc(-c5ccc6c(ccc7nc([C@@H]8C[C@H]9C[C@H]9N8C(=O)[C@@H](NC(=O)OC)C(C)C)[nH]c76)c5)ccc4c3[nH]2)N(C(=O)[C@@H](NC(=O)OC)C(C)C)C1` [Example 471], the pEC50 is 9.00 to 12.00 in test [1] (setting [8]); 9.00 to 12.00 in test [2] (setting [9]); 7.36 to 9.00 in test [3]; 9.00 to 12.00 in test [4]; 9.00 to 12.00 in test [5] (setting [10]); 9.00 to 12.00 in test [7]. The EC50 in test [6] turned out to be 0.015 nM.
With `COC(=O)N[C@H](C(=O)N1CCC[C@H]1c1ncc(-c2ccc3cc(-c4ccc(-c5cnc([C@@H]6CCCN6C(=O)[C@H](NC(=O)OC)c6ccccc6)[nH]5)cc4)ccc3c2)[nH]1)C(C)C` [Example 26], the pEC50 in test [1] (Table 2, genotype 2a JFH-1 replicon, 72 hours) was 9.00 to 12.00; in test [2] (Table 2, genotype 1a H77 replicon, 72 hours), 9.00 to 12.00; in test [3] it was 7.36 to 9.00; in test [4], 9.00 to 12.00; in test [5] (read-out: 3a, Table 2, genotype 3a NS5A chimeric replicon), 9.00 to 12.00; in test [6] (read-out: 1b), 10.92. In addition, the pEC50 in test [7] is 7.36 to 9.00.
As to `COC(=O)N[C@H](C(=O)N1C[C@@H](C)C[C@H]1c1ncc(-c2cc3c4c(c2)OCc2cc(-c5cnc([C@@H]6C[C@H](C)CN6C(=O)[C@H](NC(=O)C6C(C)(C)C6(C)C)c6ccccc6)[nH]5)cc(c2-4)OC3)[nH]1)C(C)C` [Example 577], the pEC50 is 9.00 to 12.00 in test [1] (setting [11]); 9.00 to 12.00 in test [2] (setting [12]); 7.36 to 9.00 in test [3]; 9.00 to 12.00 in test [4]; 9.00 to 12.00 in test [5] (setting [13]); below 7.36 in test [7]. Further, in test [6], the EC50 came to 0.017 nM.
Turning to `O=C(CC1CC1)N[C@@H](C(=O)N1CCC[C@H]1c1ncc(-c2cc3c4c(c2)OCc2cc(-c5cnc([C@@H]6CCCN6C(=O)[C@H](NC(=O)CC6CC6)c6ccccc6)[nH]5)cc(c2-4)OC3)[nH]1)c1ccccc1` [Example 465], the pEC50 in test [1] (setting [8]), in test [2] (setting [9]), in test [3], in test [4], in test [5] (setting [10]) and in test [7] was 9.00 to 12.00 in each case. Moreover, the EC50 in test [6] was found to be 0.176 nM.
Regarding `COC[C@H]1C[C@@H](c2nc3ccc4cc(-c5ccc(-c6cnc([C@@H]7CCCN7C(=O)[C@H](N)c7ccccc7)[nH]6)cc5)ccc4c3[nH]2)N(C(=O)[C@@H](NC(=O)OC)C(C)C)C1` [Example 477], the pEC50 in test [1] (setting [8]), in test [2] (setting [9]), in test [3], in test [4], in test [5] (setting [10]) and in test [7] was 9.00 to 12.00 throughout. Further, the EC50 in test [6] was determined as 0.089 nM.
With `COC(=O)N[C@H](C(=O)N1CCC[C@H]1c1ncc(-c2ccc3cc(-c4ccc(-c5cnc([C@@H]6C[C@@H](C)CN6C(=O)[C@H](NC(=O)OC)c6ccccc6)[nH]5)cc4)ccc3c2)[nH]1)C(C)C` [Example 159], the pEC50 in test [1] (Hepatitis C virus, genotype 2a JFH-1 replicon, RLuc reporter) is 9.00 to 12.00; in test [2] (Hepatitis C virus, genotype 1a H77 replicon, RLuc reporter) it was 9.00 to 12.00; in test [3], 7.36 to 9.00; in test [4] it was 9.00 to 12.00; in test [5] (Hepatitis C virus, read-out: 3a, genotype 3a NS5A chimeric 1b Con1 replicon) it was 9.00 to 12.00; in test [7] it was below 7.36. The EC50 in test [6] turned out to be 0.006 nM.
Take `COC(=O)N[C@H](C(=O)N1CCC[C@H]1c1nc2c([nH]1)-c1cc3c(cc1CC2)-c1ccc(-c2cnc([C@@H]4CCCN4C(=O)[C@H](NC(=O)C4CC4)c4ccccc4)[nH]2)cc1CO3)C(C)C` [Example 494]: the pEC50 in test [1] (setting [11]), in test [2] (setting [12]), in test [3], in test [4], in test [5] (setting [13]) and in test [7] was 9.00 to 12.00 each time. Also, the EC50 in test [6] is 0.021 nM.
With `COC(=O)NC(C(=O)N1CCC[C@H]1c1ncc(-c2cc3c4c(c2)OCc2cc(-c5[nH]c([C@@H]6CCCN6C(=O)C(NC(=O)OC)c6cccnc6)nc5Cl)cc(c2-4)OC3)[nH]1)c1cccnc1` (some centres unmarked) [Example 420], the pEC50 is 9.00 to 12.00 in test [1] (setting [8]); 7.36 to 9.00 in test [2] (setting [9]); 7.36 to 9.00 in test [3]; 8.30 to 9.00 in test [4]; 9.00 to 12.00 in test [5] (setting [10]); 7.36 to 9.00 in test [7]. The EC50 in test [6] came out at 4.66 nM.
Turning to `COC[C@H]1C[C@@H](c2ncc(-c3cc4c5c(c3)OCc3cc(-c6cnc([C@@H]7C[C@H](COC)CN7C(=O)[C@@H](NC(=O)OC)C(C)C)[nH]6)cc(c3-5)OC4)[nH]2)N(C(=O)[C@@H](NC(=O)OC)C(C)C)C1` [Example 513], the pEC50 was 9.00 to 12.00 in test [1] (setting [11]); 9.00 to 12.00 in test [2] (setting [12]); 7.36 to 9.00 in test [3]; 9.00 to 12.00 in test [4]; 9.00 to 12.00 in test [5] (setting [13]); 7.36 to 9.00 in test [7]. The EC50 in test [6] is 0.068 nM.
As for `CC(C)OC(=O)N[C@@H](C(=O)N1CCC[C@H]1c1ncc(-c2cc3c4c(c2)OCc2cc(-c5cnc([C@@H]6CCCN6C(=O)[C@H](NC(=O)OC(C)C)c6ccccc6)[nH]5)cc(c2-4)OC3)[nH]1)c1ccccc1` [Example 488], the pEC50 in test [1] (setting [11]) is 9.00 to 12.00; in test [2] (setting [12]), 9.00 to 12.00; in test [3], 9.00 to 12.00; in test [4] it was 9.00 to 12.00; in test [5] (setting [13]), 9.00 to 12.00; in test [7], 7.36 to 9.00. Besides, the EC50 in test [6] is 0.03 nM.
Turning to `COC[C@H]1C[C@@H](c2nc3ccc4cc5c(cc4c3[nH]2)OCc2cc(-c3cnc([C@@H]4CCCN4C(=O)[C@H](NC(=O)C4CC4)c4ccccc4)[nH]3)ccc2-5)N(C(=O)[C@@H](NC(=O)OC)C(C)C)C1` [Example 510], the pEC50 in test [1] (setting [11]), in test [2] (setting [12]), in test [3], in test [4], in test [5] (setting [13]) and in test [7] was 9.00 to 12.00 each time. Further, in test [6], the EC50 is 0.05 nM.
As to `COC(=O)N[C@H](C(=O)N1CCC[C@H]1c1ncc(-c2ccc3c(c2)COc2c-3ccc3c2ccc2nc([C@@H]4CCCN4C(=O)[C@H](NC(=O)OC)c4ccccc4)[nH]c23)[nH]1)C(C)C` [Example 413], the pEC50 in test [1] (setting [8]) is 9.00 to 12.00; in test [2] (setting [9]), 9.00 to 12.00; in test [3], 7.36 to 9.00; in test [4], 9.00 to 12.00; in test [5] (setting [10]), 9.00 to 12.00; in test [7], 7.36 to 9.00. Further, in test [6], the EC50 was determined as 0.017 nM.
`COC(=O)N[C@H](C(=O)N1CCC[C@H]1c1nc2ccc3cc(-c4ccc5cc(-c6[nH]c([C@@H]7CCCN7C(=O)[C@H](NC(=O)OC)c7ccccc7)nc6Cl)ccc5c4)ccc3c2[nH]1)C(C)C` [Example 385]: the pEC50 is 9.00 to 12.00 in test [1] (setting [8]); 9.00 to 12.00 in test [2] (setting [9]); 7.36 to 9.00 in test [3]; 9.00 to 12.00 in test [4]; 9.00 to 12.00 in test [5] (setting [10]); 7.36 to 9.00 in test [7]. For the same compound, in test [6], the EC50 turned out to be 0.007 nM.
Take `COC[C@H]1C[C@@H](c2nc3ccc4cc(-c5ccc(-c6cnc([C@@H]7CCCN7C(=O)[C@H](NC(=O)OC)c7ccccc7)[nH]6)cc5)ccc4c3[nH]2)N(C(=O)[C@@H](NC(=O)OC)C(C)C)C1` [Example 415]: the pEC50 in test [1] (setting [8]), in test [2] (setting [9]), in test [3], in test [4], in test [5] (setting [10]) and in test [7] was 9.00 to 12.00 each time. Also, the EC50 in test [6] came out at 0.034 nM.
For the compound `COC(=O)N[C@H](C(=O)N1CCC[C@H]1c1ncc(-c2cc3c4c(c2)OCc2cc(-c5cnc([C@@H]6CCCN6C(=O)[C@H](NC(=O)OC)c6ccccc6)[nH]5)cc(c2-4)OC3)[nH]1)C1CCOCC1` [Example 364], the pEC50 in test [1] (setting [8]), in test [2] (setting [9]), in test [3], in test [4], in test [5] (setting [10]) and in test [7] was 9.00 to 12.00 throughout. Further, the EC50 in test [6] was found to be 0.335 nM.
For `COC(=O)N[C@H](C(=O)N1CC2(C[C@H]1c1nc3ccc4cc(-c5ccc6c(ccc7nc([C@@H]8CCCN8C(=O)[C@H](NC(=O)OC)c8ccccc8)[nH]c76)c5)ccc4c3[nH]1)OCCO2)C(C)C` [Example 323], the pEC50 in test [1] (setting [8]), in test [2] (setting [9]), in test [3], in test [4], in test [5] (setting [10]) and in test [7] was 9.00 to 12.00 each time. In addition, in test [6], the EC50 was 0.043 nM.
As to `COC[C@H]1C[C@@H](c2nc3ccc4cc(-c5ccc(-c6cnc([C@@H]7CCCN7C(=O)[C@H](NC(=O)CN(C)C)c7ccccc7)[nH]6)cc5)ccc4c3[nH]2)N(C(=O)[C@@H](NC(=O)OC)C(C)C)C1` [Example 476], the pEC50 in test [1] (setting [8]), in test [2] (setting [9]), in test [3], in test [4], in test [5] (setting [10]) and in test [7] was 9.00 to 12.00 throughout. The EC50 in test [6] is 0.099 nM.
